# According to PubChem BioAssay (NCI):
#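 Grown in 96-well plates, cells were treated for 48 hours with each compound at five concentrations. Insufficient inhibition: endpoint recorded as highest concentration tested. TGI marks complete inhibition of growth.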
# What was measured:
# Experiment in all cases: NCI-60 cell line screen, 48 h
# 786-0 renal = tested on: 786-0 renal
# A498 renal = tested on: A498 renal
# A549 NSCLC = tested on: A549 NSCLC
# ACHN renal = tested on: ACHN renal
# CAKI-1 renal = tested on: CAKI-1 renal
# COLO 205 colon = tested on: COLO 205 colon
# DLD-1 colon = tested on: DLD-1 colon
# DMS 114 small cell lung = tested on: DMS 114 small cell lung
# DMS 273 small cell lung = tested on: DMS 273 small cell lung
# EKVX NSCLC = tested on: EKVX NSCLC
# HCC-2998 colon = tested on: HCC-2998 colon
# HCT-116 colon = tested on: HCT-116 colon
# HCT-15 colon = tested on: HCT-15 colon
# HL-60(TB) leukemia = tested on: HL-60(TB) leukemia
# HT29 colon = tested on: HT29 colon
# IGROV1 ovarian = tested on: IGROV1 ovarian
# K-562 leukemia = tested on: K-562 leukemia
# KM12 colon = tested on: KM12 colon
# KM20L2 colon = tested on: KM20L2 colon
# LOX IMVI melanoma = tested on: LOX IMVI melanoma
# LXFL 529 NSCLC = tested on: LXFL 529 NSCLC
# M14 melanoma = tested on: M14 melanoma
# M19-MEL melanoma = tested on: M19-MEL melanoma
# MOLT-4 leukemia = tested on: MOLT-4 leukemia
# NCI-H226 lung = tested on: NCI-H226 lung
# NCI-H23 lung = tested on: NCI-H23 lung
# NCI-H460 lung = tested on: NCI-H460 lung
# NCI-H522 lung = tested on: NCI-H522 lung
# OVCAR-3 ovarian = tested on: OVCAR-3 ovarian
# OVCAR-4 ovarian = tested on: OVCAR-4 ovarian
# OVCAR-5 ovarian = tested on: OVCAR-5 ovarian
# OVCAR-8 ovarian = tested on: OVCAR-8 ovarian
# RPMI-8226 leukemia = tested on: RPMI-8226 leukemia
# SF-268 CNS = tested on: SF-268 CNS
# SF-295 CNS = tested on: SF-295 CNS
# SF-539 CNS = tested on: SF-539 CNS
# SK-MEL-2 melanoma = tested on: SK-MEL-2 melanoma
# SK-MEL-28 melanoma = tested on: SK-MEL-28 melanoma
# SK-MEL-5 melanoma = tested on: SK-MEL-5 melanoma
# SK-OV-3 ovarian = tested on: SK-OV-3 ovarian
# SN12C renal = tested on: SN12C renal
# SNB-19 CNS = tested on: SNB-19 CNS
# SNB-75 CNS = tested on: SNB-75 CNS
# SNB-78 CNS = tested on: SNB-78 CNS
# SR leukemia = tested on: SR leukemia
# SW-620 colon = tested on: SW-620 colon
# TK-10 renal = tested on: TK-10 renal
# U251 CNS = tested on: U251 CNS
# UACC-257 melanoma = tested on: UACC-257 melanoma
# UACC-62 melanoma = tested on: UACC-62 melanoma
# UO-31 renal = tested on: UO-31 renal
# BT-549 breast = tested on: BT-549 breast
# CCRF-CEM leukemia = tested on: CCRF-CEM leukemia
# DU-145 prostate = tested on: DU-145 prostate
# HOP-62 NSCLC = tested on: HOP-62 NSCLC
# HOP-92 NSCLC = tested on: HOP-92 NSCLC
# HS 578T breast = tested on: HS 578T breast
# MALME-3M melanoma = tested on: MALME-3M melanoma
# MCF7 breast = tested on: MCF7 breast
# MDA-MB-231 breast = tested on: MDA-MB-231 breast
# MDA-MB-435 = tested on: MDA-MB-435
# MDA-N = tested on: MDA-N
# NCI/ADR-RES ovarian = tested on: NCI/ADR-RES ovarian
# PC-3 prostate = tested on: PC-3 prostate
# RXF 393 renal = tested on: RXF 393 renal
# T-47D breast = tested on: T-47D breast
compound,measurement,setting,value
CCCCCCCCCCCCCCCCNCCCN(C)CCCN,TGI,786-0 renal,28.9 µM
same,TGI,A498 renal,34 µM
same,TGI,A549 NSCLC,32.1 µM
same,TGI,ACHN renal,34.9 µM
same,TGI,CAKI-1 renal,35.8 µM
same,TGI,COLO 205 colon,46.6 µM
same,TGI,DLD-1 colon,36 µM
same,TGI,DMS 114 small cell lung,35.1 µM
same,TGI,DMS 273 small cell lung,34.8 µM
same,TGI,EKVX NSCLC,42.8 µM
same,TGI,HCC-2998 colon,33.4 µM
same,TGI,HCT-116 colon,38 µM
same,TGI,HCT-15 colon,32.7 µM
same,TGI,HL-60(TB) leukemia,42.4 µM
same,TGI,HT29 colon,35.8 µM
same,TGI,IGROV1 ovarian,43.1 µM
same,TGI,K-562 leukemia,49.5 µM
same,TGI,KM12 colon,33 µM
same,TGI,KM20L2 colon,32.7 µM
same,TGI,LOX IMVI melanoma,42 µM
same,TGI,LXFL 529 NSCLC,33.2 µM
same,TGI,M14 melanoma,30.8 µM
same,TGI,M19-MEL melanoma,41.3 µM
same,TGI,MOLT-4 leukemia,94.1 µM
same,TGI,NCI-H226 lung,39.3 µM
same,TGI,NCI-H23 lung,34.1 µM
same,TGI,NCI-H460 lung,34.1 µM
same,TGI,NCI-H522 lung,32.3 µM
same,TGI,OVCAR-3 ovarian,35.9 µM
same,TGI,OVCAR-4 ovarian,32.9 µM
same,TGI,OVCAR-5 ovarian,31.7 µM
same,TGI,OVCAR-8 ovarian,38.5 µM
same,TGI,RPMI-8226 leukemia,46.2 µM
same,TGI,SF-268 CNS,34.9 µM
same,TGI,SF-295 CNS,33.4 µM
same,TGI,SF-539 CNS,34.5 µM
same,TGI,SK-MEL-2 melanoma,41.8 µM
same,TGI,SK-MEL-28 melanoma,26.6 µM
same,TGI,SK-MEL-5 melanoma,31.4 µM
same,TGI,SK-OV-3 ovarian,34.6 µM
same,TGI,SN12C renal,41 µM
same,TGI,SNB-19 CNS,31.5 µM
same,TGI,SNB-75 CNS,34.2 µM
same,TGI,SNB-78 CNS,34.4 µM
same,TGI,SR leukemia,42.2 µM
same,TGI,SW-620 colon,36.3 µM
same,TGI,TK-10 renal,29.3 µM
same,TGI,U251 CNS,31.8 µM
same,TGI,UACC-257 melanoma,40.4 µM
same,TGI,UACC-62 melanoma,33.2 µM
same,TGI,UO-31 renal,31.6 µM
CC12CC3OC(=O)C1COC14OC5(C2C1=O)C(O)(CCC1C4CC2OC24CC=CC(=O)C14C)C(=O)OC35C (centres undefined),TGI,786-0 renal,28.7 µM
same,TGI,A498 renal,43.3 µM
same,TGI,A549 NSCLC,> 100 µM
same,TGI,ACHN renal,30.8 µM
same,TGI,BT-549 breast,9.66 µM
same,TGI,CAKI-1 renal,25.8 µM
same,TGI,CCRF-CEM leukemia,24.1 µM
same,TGI,COLO 205 colon,22.1 µM
same,TGI,DU-145 prostate,27.7 µM
same,TGI,EKVX NSCLC,> 100 µM
same,TGI,HCC-2998 colon,32.8 µM
same,TGI,HCT-116 colon,29.2 µM
same,TGI,HCT-15 colon,37.7 µM
same,TGI,HL-60(TB) leukemia,28.7 µM
same,TGI,HOP-62 NSCLC,39.4 µM
same,TGI,HOP-92 NSCLC,68.1 µM
same,TGI,HS 578T breast,> 100 µM
same,TGI,HT29 colon,> 100 µM
same,TGI,IGROV1 ovarian,42.8 µM
same,TGI,K-562 leukemia,> 100 µM
same,TGI,KM12 colon,36.5 µM
same,TGI,LOX IMVI melanoma,29.5 µM
same,TGI,M14 melanoma,44 µM
same,TGI,MALME-3M melanoma,52.8 µM
same,TGI,MCF7 breast,40.9 µM
same,TGI,MDA-MB-231 breast,37 µM
same,TGI,MDA-MB-435,32.9 µM
same,TGI,MDA-N,29.4 µM
same,TGI,MOLT-4 leukemia,66.9 µM
same,TGI,NCI-H23 lung,33.1 µM
same,TGI,NCI-H460 lung,> 100 µM
same,TGI,NCI-H522 lung,19.8 µM
same,TGI,NCI/ADR-RES ovarian,> 100 µM
same,TGI,OVCAR-3 ovarian,28.7 µM
same,TGI,OVCAR-4 ovarian,> 100 µM
same,TGI,OVCAR-5 ovarian,34.9 µM
same,TGI,OVCAR-8 ovarian,> 100 µM
same,TGI,PC-3 prostate,40.1 µM
same,TGI,RPMI-8226 leukemia,71.4 µM
same,TGI,RXF 393 renal,13.4 µM
same,TGI,SF-268 CNS,> 100 µM
same,TGI,SF-295 CNS,69.5 µM
same,TGI,SF-539 CNS,28.4 µM
same,TGI,SK-MEL-2 melanoma,28.1 µM
same,TGI,SK-MEL-28 melanoma,24.7 µM
same,TGI,SK-MEL-5 melanoma,11.5 µM
same,TGI,SK-OV-3 ovarian,> 100 µM
same,TGI,SN12C renal,60.1 µM
same,TGI,SNB-19 CNS,44.9 µM
same,TGI,SNB-75 CNS,> 100 µM
same,TGI,SR leukemia,48.3 µM
same,TGI,SW-620 colon,34.5 µM
same,TGI,T-47D breast,37.3 µM
same,TGI,TK-10 renal,30.8 µM
same,TGI,U251 CNS,35.9 µM
same,TGI,UACC-257 melanoma,39.4 µM
same,TGI,UACC-62 melanoma,27.6 µM
same,TGI,UO-31 renal,31.1 µM
